Columns and labels:
[1] = biological target: T1, DDB1DB/DCAF15 and RBM39 R1R2 complex (Homo sapiens, UniProt Q14498+Q66K64); experiment: DCAF15 RBM39 Complex Formation Assay (FRET); format: binding; conditions: FRET ratio Em 665/Em 615, incubated overnight at 4° C.
T1 construct: Amino acids 150 to 331 of RBM39 were cloned into pGEX4T3; GST (from vector pGEX4T3); TEV cleavage site (N); made in house; host or cells: DDB1DB/His-DCAF15: baculovirus/Sf9 co-expression; RBM39 R1R2: E. coli (pGEX4T3)
Summary of the method: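 Ternary complex formation read by TR-FRET (Em 665/615, excitation 340 nm) after overnight incubation at 4° C of 20 nM baculovirus DDB1DB/His-DCAF15 and 50 nM E. coli RBM39 RRM1-RRM2 FLAG fragment with 14-point, 3-fold compound dilutions from 1 μM; EC50 from 4-parameter fit.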

[2] = test system: HCT116 human colorectal carcinoma cells; experiment: CellTiter-Glo Luminescent Cell Viability Assay; format: cell-based; conditions: HCT-116, 72 h, 3 days
Summary of the method: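 HCT116 cells were exposed for 3 days to compound in triplicate at final concentrations of 5 to 0.0002 […] (1:3 dilutions). Viability was read by CellTiter-Glo luminescence, and IC50 values were calculated.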

T1 sequence (Q66K64 whole entry, the tested form may be a part): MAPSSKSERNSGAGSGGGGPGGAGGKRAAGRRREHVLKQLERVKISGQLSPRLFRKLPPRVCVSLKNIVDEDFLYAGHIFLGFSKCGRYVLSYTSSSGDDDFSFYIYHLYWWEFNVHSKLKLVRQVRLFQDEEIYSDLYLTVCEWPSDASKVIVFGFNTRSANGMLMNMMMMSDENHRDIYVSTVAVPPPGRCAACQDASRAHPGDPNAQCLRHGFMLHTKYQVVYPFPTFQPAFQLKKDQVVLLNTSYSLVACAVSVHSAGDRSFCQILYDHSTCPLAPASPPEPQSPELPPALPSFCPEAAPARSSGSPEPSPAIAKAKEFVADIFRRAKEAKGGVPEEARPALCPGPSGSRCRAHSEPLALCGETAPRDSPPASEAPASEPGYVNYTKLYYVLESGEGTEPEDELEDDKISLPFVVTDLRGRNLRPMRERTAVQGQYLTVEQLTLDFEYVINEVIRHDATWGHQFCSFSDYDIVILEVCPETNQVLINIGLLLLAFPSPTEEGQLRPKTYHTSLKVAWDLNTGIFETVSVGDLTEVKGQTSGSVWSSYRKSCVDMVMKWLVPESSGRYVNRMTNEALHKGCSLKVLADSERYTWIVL
T1 sequence (Q14498 150-331): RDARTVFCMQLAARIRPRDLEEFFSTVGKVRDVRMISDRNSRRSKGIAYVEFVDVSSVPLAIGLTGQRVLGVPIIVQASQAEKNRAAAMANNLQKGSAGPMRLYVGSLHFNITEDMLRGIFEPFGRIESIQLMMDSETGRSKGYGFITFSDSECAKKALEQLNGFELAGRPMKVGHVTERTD
T1 sequence (Q16531 with tags, fused parts or gaps DEL396-708 partner): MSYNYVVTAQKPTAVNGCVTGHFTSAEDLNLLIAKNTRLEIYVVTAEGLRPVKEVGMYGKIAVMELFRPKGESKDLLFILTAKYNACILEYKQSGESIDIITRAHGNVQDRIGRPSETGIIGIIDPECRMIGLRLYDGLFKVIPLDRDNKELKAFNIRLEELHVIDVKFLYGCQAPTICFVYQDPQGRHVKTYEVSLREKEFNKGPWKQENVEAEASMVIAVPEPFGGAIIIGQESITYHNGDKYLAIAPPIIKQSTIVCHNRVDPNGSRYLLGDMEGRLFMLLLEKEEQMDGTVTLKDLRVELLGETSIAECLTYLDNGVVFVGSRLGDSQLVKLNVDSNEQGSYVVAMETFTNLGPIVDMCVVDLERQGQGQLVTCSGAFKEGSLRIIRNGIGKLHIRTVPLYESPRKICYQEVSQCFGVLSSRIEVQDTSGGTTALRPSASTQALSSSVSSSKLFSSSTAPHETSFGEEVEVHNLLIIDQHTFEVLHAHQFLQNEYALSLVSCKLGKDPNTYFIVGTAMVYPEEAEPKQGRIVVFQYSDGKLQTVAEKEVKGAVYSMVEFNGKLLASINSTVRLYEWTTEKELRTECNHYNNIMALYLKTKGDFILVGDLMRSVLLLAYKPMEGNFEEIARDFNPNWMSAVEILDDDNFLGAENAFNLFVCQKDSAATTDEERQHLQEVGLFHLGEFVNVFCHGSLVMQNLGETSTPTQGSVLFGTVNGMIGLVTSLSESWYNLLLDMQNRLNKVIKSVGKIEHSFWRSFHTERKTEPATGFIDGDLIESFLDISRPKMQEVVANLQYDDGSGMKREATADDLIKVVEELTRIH

Row | IC50 [1] [nM] | EC50 [2] [nM] | Structure (SMILES)
1 | < 250 | 250 to 1000 | [2H]C([2H])([2H])n1cc(S(=O)(=O)Nc2ccc(C)c3c(C#N)c[nH]c23)cn1 [Compound 110, N-(3-Cyano-4-methyl-1H-indol-7-yl)-1-(trideuteriomethyl)pyrazole-4-sulfonamide]
2 | < 250 | 250 to 1000 | Cc1ccc(NS(=O)(=O)c2cnn(C3CC(F)C3)c2)c2[nH]cc(C#N)c12 (stereo not shown) [Compound 111, N-(3-cyano-4-methyl-1H-indol-7-yl)-1-(3-fluorocyclobutyl)pyrazole-4-sulfonamide]
3 | < 250 | 250 to 1000 | Cc1ccc(NS(=O)(=O)c2cnn(C)c2F)c2[nH]cc(C#N)c12 [Compound 112, N-(3-cyano-4-methyl-1H-indol-7-yl)-5-fluoro-1-methyl-pyrazole-4-sulfonamide]
4 | < 250 | < 250 | Cc1ccc(NS(=O)(=O)c2cnn(C)c2C)c2[nH]cc(C#N)c12 [Compound 113, N-(3-cyano-4-methyl-1H-indol-7-yl)-1,5-dimethyl-pyrazole-4-sulfonamide]
5 | < 250 | 250 to 1000 | Cc1nn(C)cc1S(=O)(=O)Nc1ccc(C)c2c(C#N)c[nH]c12 [Compound 114, N-(3-cyano-4-methyl-1H-indol-7-yl)-1,3-dimethyl-pyrazole-4-sulfonamide]
6 | < 250 | < 250 | CC1(n2cc(S(=O)(=O)Nc3ccc(Cl)c4c(Cl)c[nH]c34)cn2)COC1 [Compound 115, N-(3,4-Dichloro-1H-indol-7-yl)-1-(3-methyloxetan-3-yl)pyrazole-4-sulfonamide]
7 | < 250 | 250 to 1000 | Cc1ccc(NS(=O)(=O)c2cnn(C3(CO)COC3)c2)c2[nH]cc(C#N)c12 [Compound 116, N-(3-cyano-4-methyl-1H-indol-7-yl)-1-[3-(hydroxymethyl)oxetan-3-yl]pyrazole-4-sulfonamide]
8 | < 250 | < 250 | Cc1ccc(NS(=O)(=O)c2cnn(C3(CF)COC3)c2)c2[nH]cc(C#N)c12 [Compound 117, N-(3-cyano-4-methyl-1H-indol-7-yl)-1-[3-(fluoromethyl)oxetan-3-yl]pyrazole-4-sulfonamide]
9 | < 250 | < 250 | CC1(n2cc(S(=O)(=O)Nc3ccc(Cl)c4c(C#N)c[nH]c34)cn2)COC1 [Compound 118, N-(4-chloro-3-cyano-1H-indol-7-yl)-1-(3-methyloxetan-3-yl)pyrazole-4-sulfonamide]
10 | < 250 | < 250 | N#Cc1c[nH]c2c(NS(=O)(=O)c3cnn(C(F)F)c3)ccc(Cl)c12 [Compound 119, N-(4-chloro-3-cyano-1H-indol-7-yl)-1-(difluoromethyl)pyrazole-4-sulfonamide]
11 | < 250 | < 250 | N#Cc1c[nH]c2c(NS(=O)(=O)c3cnn(CC(F)(F)F)c3)ccc(Cl)c12 [Compound 120, N-(4-chloro-3-cyano-1H-indol-7-yl)-1-(2,2,2-trifluoroethyl)pyrazole-4-sulfonamide]

Second part, the compound before the results:

Row | Structure (SMILES) | IC50 [1] [nM] | EC50 [2] [nM]
12 | Cc1ccc(NS(=O)(=O)c2cnn(C3CC4(COC4)C3)c2)c2[nH]cc(C#N)c12 [Compound 85, N-(3-cyano-4-methyl-1H-indol-7-yl)-1-(2-oxaspiro[3.3]heptan-6-yl)pyrazole-4-sulfonamide] | < 250 | 250 to 1000
13 | Cc1ccc(NS(=O)(=O)c2cnn(C3CCC(F)(F)CC3)c2)c2[nH]cc(C#N)c12 [Compound 86, N-(3-cyano-4-methyl-1H-indol-7-yl)-1-(4,4-difluorocyclohexyl)pyrazole-4-sulfonamide] | < 250 | 250 to 1000
14 | Cc1ccc(NS(=O)(=O)c2cnn(C3CCN(CC(F)(F)F)CC3)c2)c2[nH]cc(C#N)c12 [Compound 87, N-(3-cyano-4-methyl-1H-indol-7-yl)-1-[1-(2,2,2-trifluoroethyl)-4-piperidyl]pyrazole-4-sulfonamide] | < 250 | > 1000
15 | Cc1ccc(NS(=O)(=O)c2cnn(C3CCCC3)c2)c2[nH]cc(C#N)c12 [Compound 88, N-(3-cyano-4-methyl-1H-indol-7-yl)-1-cyclopentyl-pyrazole-4-sulfonamide] | < 250 | 250 to 1000
16 | Cc1ccc(NS(=O)(=O)c2cnn(Cc3ccccc3)c2)c2[nH]cc(C#N)c12 [Compound 89, 1-benzyl-N-(3-cyano-4-methyl-1H-indol-7-yl)pyrazole-4-sulfonamide] | < 250 | 250 to 1000
17 | CCCn1cc(S(=O)(=O)Nc2ccc(C)c3c(C#N)c[nH]c23)cn1 [Compound 90, N-(3-cyano-4-methyl-1H-indol-7-yl)-1-propyl-pyrazole-4-sulfonamide] | < 250 | < 250
18 | N#Cc1c[nH]c2c(NS(=O)(=O)c3cnn(CC(F)F)c3)ccc(Cl)c12 [Compound 91, N-(4-chloro-3-cyano-1H-indol-7-yl)-1-(2,2-difluoroethyl)pyrazole-4-sulfonamide] | < 250 | 250 to 1000
19 | N#Cc1c[nH]c2c(NS(=O)(=O)c3cnn(CC(F)F)c3)ccc(F)c12 [Compound 92, N-(3-cyano-4-fluoro-1H-indol-7-yl)-1-(2,2-difluoroethyl)pyrazole-4-sulfonamide] | < 250 | 250 to 1000
20 | Cc1ccc(NS(=O)(=O)c2cnn(S(C)(=O)=O)c2)c2[nH]cc(C#N)c12 [Compound 93, N-(3-cyano-4-methyl-1H-indol-7-yl)-1-methylsulfonyl-pyrazole-4-sulfonamide] | < 250 | 250 to 1000
21 | Cc1ccc(NS(=O)(=O)c2cnn(C(C)(C)C)c2)c2[nH]cc(C#N)c12 [Compound 94, 1-tert-butyl-N-(3-cyano-4-methyl-1H-indol-7-yl)pyrazole-4-sulfonamide] | < 250 | < 250
22 | CC(C)(C)n1cc(S(=O)(=O)Nc2cccc3c(Cl)c[nH]c23)cn1 [Compound 95, 1-tert-butyl-N-(3-chloro-1H-indol-7-yl)pyrazole-4-sulfonamide] | < 250 | 250 to 1000
23 | Cn1cc(S(=O)(=O)Nc2ccc(C(F)(F)F)c3cc[nH]c23)cn1 [Compound 96, 1-methyl-N-[4-(trifluoromethyl)-1H-indol-7-yl]pyrazole-4-sulfonamide] | 250 to 1000 | > 1000
24 | Cn1cc(S(=O)(=O)Nc2ccc(C(F)(F)F)c3c(Cl)c[nH]c23)cn1 [Compound 97, N-[3-chloro-4-(trifluoromethyl)-1H-indol-7-yl]-1-methyl-pyrazole-4-sulfonamide] | < 250 | > 1000
25 | Cc1ccc(NS(=O)(=O)c2cnn(CC(F)F)c2)c2[nH]cc(Cl)c12 [Compound 98, N-(3-chloro-4-methyl-1H-indol-7-yl)-1-(2,2-difluoroethyl)pyrazole-4-sulfonamide] | < 250 | < 250
26 | Cc1ccc(NS(=O)(=O)c2cnn(S(=O)(=O)CF)c2)c2[nH]cc(C#N)c12 [Compound 100, N-(3-cyano-4-methyl-1H-indol-7-yl)-1-(fluoromethylsulfonyl)pyrazole-4-sulfonamide] | < 250 | 250 to 1000
27 | Cc1ccc(NS(=O)(=O)c2cnn(S(=O)(=O)c3ccccc3)c2)c2[nH]cc(C#N)c12 [Compound 101, 1-(benzenesulfonyl)-N-(3-cyano-4-methyl-1H-indol-7-yl)pyrazole-4-sulfonamide] | < 250 | 250 to 1000
28 | CCn1ncc(S(=O)(=O)Nc2ccc(C)c3c(C#N)c[nH]c23)c1F [Compound 102, N-(3-Cyano-4-methyl-1H-indol-7-yl)-1-ethyl-5-fluoro-pyrazole-4-sulfonamide] | < 250 | < 250
29 | O=S(=O)(Nc1ccc(C(F)(F)F)c2c(Cl)c[nH]c12)c1cnn(CC(F)F)c1 [Compound 103, N-[3-chloro-4-(trifluoromethyl)-1H-indol-7-yl]-1-(2,2-difluoroethyl)pyrazole-4-sulfonamide] | < 250 | > 1000
30 | N#Cc1c[nH]c2c(NS(=O)(=O)c3cnn(CC(F)F)c3)ccc(C(F)(F)F)c12 [Compound 104, N-[3-cyano-4-(trifluoromethyl)-1H-indol-7-yl]-1-(2,2-difluoroethyl)pyrazole-4-sulfonamide] | < 250 | 250 to 1000
31 | Cn1cc(S(=O)(=O)Nc2ccc(C(F)(F)F)c3c(C#N)c[nH]c23)cn1 [Compound 105, N-[3-cyano-4-(trifluoromethyl)-1H-indol-7-yl]-1-methyl-pyrazole-4-sulfonamide] | < 250 | 250 to 1000
32 | Cc1ccc(NS(=O)(=O)c2cnn(CC3(CO)COC3)c2)c2[nH]cc(C#N)c12 [Compound 106, N-(3-cyano-4-methyl-1H-indol-7-yl)-1-[[3-(hydroxymethyl)oxetan-3-yl]methyl]pyrazole-4-sulfonamide] | < 250 | 250 to 1000
33 | Cc1ccc(NS(=O)(=O)c2cnn(C3(C)COC3)c2)c2[nH]cc(C#N)c12 [Compound 107, N-(3-cyano-4-methyl-1H-indol-7-yl)-1-(3-methyloxetan-3-yl)pyrazole-4-sulfonamide] | < 250 | < 250
34 | Cc1ccc(NS(=O)(=O)c2cnn(CC(C)(C)O)c2)c2[nH]cc(C#N)c12 [Compound 108, N-(3-Cyano-4-methyl-1H-indol-7-yl)-1-(2-hydroxy-2-methyl-propyl)pyrazole-4-sulfonamide] | < 250 | 250 to 1000
35 | Cc1ccc(NS(=O)(=O)c2cnn(C3CC(F)(F)C3)c2)c2[nH]cc(C#N)c12 [Compound 109, N-(3-cyano-4-methyl-1H-indol-7-yl)-1-(3,3-difluorocyclobutyl)pyrazole-4-sulfonamide] | < 250 | 250 to 1000

Reference: US20250368627A1, “PYRAZOLESULFONAMIDES AS ANTITUMOR AGENTS” (Peloton Therapeutics, Inc., a fully owned subsidiary of …, priority 2019, published 2025)
